Source: the supplement of paper PMC10949913

Experiments:
Assay in all cases: area under concentration-response curve (viability) (AUC (a.u.)); higher = less active
Settings in all cases: 48 h
[1] = system: CU-ACC2
Method in brief: (§1)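 After 48 h of treatment with 23 nL of each library compound at 11 concentrations, three adrenocortical carcinoma cell lines in 1,536-well plates (500–1,000 cells/well, 5 µL medium) were given CellTiter-Glo for 15 minutes at room temperature. Luminescence was then read and normalised per plate to vehicle and empty-well controls. AC50 and area under the curve were drawn from fitted concentration-response curves of inhibitory or non-responding classes only.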

[2] = system: NCI-H295R
Method in brief: as §1

[3] = system: CU-ACC1
Method in brief: as §1

Row | SMILES | area under concentration-response curve [1] | area under concentration-response curve [2] | area under concentration-response curve [3]
1 | CN1\C(=C(\O)C2=C(C=CC=C2)[S+]1([O-])=O)C(=O)NC3=CC=CC=N3 | 495 | 464 | 432
2 | Cc1ccc(Nc2nccc(N(C)c3ccc4c(C)n(C)nc4c3)n2)cc1[S+](N)(=O)[O-] | 620 | 570 | 516
3 | Nc1nc(OCc2cc(Br)cs2)c2[nH]cnc2n1 | 616 | 552 | 516
4 | Cc1nnc(C(C)C)n1C1CC2CCC(C1)N2CCC(NC(=O)C1CCC(F)(F)CC1)c1ccccc1 (stereo not drawn) | 498 | 451 | 478
5 | CN1[C@@H]2CCC[C@H]1CC(NC(=O)c1nn(C)c3ccccc13)C2 (stereo partly drawn) | 584 | 490 | 511
6 | CNc1nc(Nc2ccc(C(=O)N3CCOCC3)cc2OC)ncc1Cl | 607 | 555 | 511
7 | Cc1onc(-c2ccccc2)c1-c1ccc([S+](N)(=O)[O-])cc1 | 570 | 535 | 457
8 | CC(=O)SCC(Cc1ccccc1)C(=O)NCC(=O)OCc1ccccc1 (stereo not drawn) | 582 | 573 | 556
9 | CCCC1=N[N](C)C2=C1\N=C(/NC2=O)C3=CC(=CC=C3OCC)[S+]([O-])(=O)N4CCN(C)CC4 | 610 | 539 | 561
10 | Cc1[nH]c(/C=C2\C(=O)Nc3ccccc32)c(C)c1CCC(=O)O | 535 | 480 | 496
11 | CO[C@H]1/C=C/O[C@@]2(C)Oc3c(C)c(O)c4c(O)c(c(/C=N/N5CCN(C)CC5)c(O)c4c3C2=O)NC(=O)/C(C)=C\C=C\[C@H](C)[C@H](O)[C@@H](C)[C@@H](O)[C@@H](C)[C@H](OC(C)=O)[C@@H]1C | 624 | 560 | 550
12 | COc1ccc(C(=O)N2CCN(c3ccc4c(c3)CCC(=O)N4)CC2)cc1OC | 562 | 554 | 458
13 | F\C1=C\N(C2CCCO2)C(=O)NC1=O (stereo not drawn) | 612 | 511 | 512
14 | C[N]1C=C(C=N1)C2=C3\C=N/NC(=O)C4=C3C(=CC(=C4)NC(=O)[C@H](N)C5CCCCC5)[NH]2 | 594 | 555 | 530
15 | C=C(c1ccc(C(=O)O)cc1)c1cc2c(cc1C)C(C)(C)CCC2(C)C | 500 | 511 | 509
16 | CC1(C)Cc2c(-c3ccccc3)c(-c3ccc(Cl)cc3)c(CC(=O)O)n2C1 | 559 | 516 | 475
17 | C[C@H](NC(=O)CCC(F)(F)F)C(=O)N[C@@H]1C(=O)N(CCO)c2ncccc2-c2ccccc21 | 511 | 475 | 472
18 | Cn1c(=O)c2c(ncn2CC(O)CO)n(C)c1=O (stereo not drawn) | 531 | 483 | 437
19 | CC(C)(C#N)c1cc(Cn2cncn2)cc(C(C)(C)C#N)c1 | 574 | 537 | 461
20 | CCOc1cc(C(=O)Nc2ccc(Cl)c(-c3nc4ccccc4[nH]3)c2)cc(OCC)c1OCC | 618 | 549 | 477
21 | CC(=O)O[C@@]1(CC[C@H]2[C@@H]3\C=C(C)/C4=C/C(=O)CC[C@]4(C)[C@H]3CC[C@]12C)C(C)=O | 553 | 492 | 471
22 | CCCCCN(C)CCC(O)(P(=O)([O-])O)P(=O)(O)O | 590 | 611 | 612
23 | CC1=CC=CC=C1N2\C(=N/C3=C(C(=CC=C3)C)C2=O)C[N]4C=NC5=C4N=CN=C5N | 643 | 583 | 555

Row | SMILES | area under concentration-response curve [1] | area under concentration-response curve [2] | area under concentration-response curve [3]
24 | CCC(=O)O[C@@]1([C@H](C)C[C@H]2[C@@H]3C[C@H](F)\C4=C\C(=O)\C=C/[C@]4(C)[C@@]3(F)[C@@H](O)C[C@]12C)C(=O)SCF | 484 | 510 | 372
25 | NC(=O)c1ncn([C@@H]2O[C@H](CO)[C@@H](O)[C@H]2O)n1 | 504 | 530 | 511
26 | CC[C@H]1OC(=O)[C@H](C)C(=O)[C@H](C)[C@@H](O[C@H]2O[C@H](C)C[C@H](N(C)C)[C@H]2O)[C@](C)(OC)C[C@@H](C)C(=O)[C@H](C)[C@H]2N(CCCCn3cnc(-c4cccnc4)c3)C(=O)O[C@]12C | 452 | 419 | 436
27 | CCCc1cc(C(N)=S)ccn1 | 649 | 581 | 587
28 | CCN(CC)CCOc1ccc(Cc2ccccc2)cc1 | 526 | 503 | 454
29 | CNC(=O)Cn1cc(-c2ccc3c(c2)C(F)CC32NC(=O)N(CC(=O)N(Cc3ccc(F)cc3)C(C)C(F)(F)F)C2=O)cn1 (stereo not drawn) | 546 | 512 | 500
30 | CCC(CC)CC1(C(=O)Nc2ccccc2SC(=O)C(C)C)CCCCC1 | 593 | 537 | 519
31 | COC12C(COC(N)=O)\C3=C(/N1CC4C2N4C)C(=O)C(=C(N)/C3=O)\C (stereo not drawn) | 544 | 507 | 506
32 | COc1cc([S+](C)(=O)[O-])ccc1Nc1nc2ccc(-c3ccc(NC(=O)[C@H](C)c4ccc(F)cc4)cc3)cn2n1 | 648 | 567 | 565
33 | O=C1C[C@@H](c2ccc(O)cc2)Oc2cc(O)cc(O)c21 | 484 | 485 | 345
34 | O=C1Cc2cc(C(=O)NC3C[C@H]4CC[C@@H](C3)N4[S+](=O)([O-])CC3CCN(CCCC(F)(F)F)CC3)c(Cl)cc2N1 (stereo partly drawn) | 611 | 539 | 525
35 | OC1=CC=C(C=C1)\C2=C(O)\C(=O)C3=C(O2)C=C(O)C=C3O | 451 | 484 | 481
36 | O=[N+]([O-])c1cn2c(n1)OC[C@@H](OCc1ccc(OC(F)(F)F)cc1)C2 | 574 | 523 | 528
37 | COC(=O)Nc1nc2cc(C(=O)c3ccc(F)cc3)ccc2[nH]1 | 574 | 462 | 570
38 | COC1(C[S+]([O-])c2ccccc2)CCN(CCc2c[nH]c3ccc(F)cc23)CC1 (stereo not drawn) | 469 | 493 | 477
39 | CCCCCCNC(=O)N1\C=C(F)/C(=O)NC1=O | 633 | 589 | 513
40 | C[C@@H](c1ccc2nccn2c1)n1nnc2ncc(-c3cnn(C)c3)nc21 | 582 | 512 | 481
41 | CCOc1cc(N)c(Cl)cc1C(=O)NCC1CN(Cc2ccc(F)cc2)CCO1 (stereo not drawn) | 538 | 542 | 554
42 | CCOC(=O)Nc1ccc(NCc2ccc(F)cc2)nc1N | 439 | 504 | 446
43 | O=C1[C@H](CC[C@H](O)c2ccc(F)cc2)[C@@H](c2ccc(O)cc2)N1c1ccc(F)cc1 | 650 | 565 | 536
44 | Cc1noc(C)c1-c1ccc(-c2cc(C(N)=O)c(NC(N)=O)s2)c(O[C@H]2CCNC2)c1 | 471 | 447 | 456
45 | CC1SC/2=C(C(O)=O)/C(=O)C3=CC(=C(C=C3N12)N4CCN(CC4)C\C5=C(C)\OC(=O)O5)F (stereo not drawn) | 612 | 565 | 586
46 | Nc1cccc2c1C(=O)N(C1CCC(=O)NC1=O)C2=O (stereo not drawn) | 645 | 567 | 520
